Source: PubChem BioAssay (NCI)
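GI50 = concentration required for 50% inhibition of growth. At the TGI there is no net growth.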

Columns and labels:
Test in all cases: NCI-60 cell line screen, 384-well format
[1] = test system: HL-60(TB) leukemia
[2] = test system: MOLT-4 leukemia
[3] = test system: SK-MEL-2 melanoma
[4] = test system: HS 578T breast
[5] = test system: EKVX NSCLC
[6] = test system: OVCAR-3 ovarian
[7] = test system: COLO 205 colon
[8] = test system: A498 renal
[9] = test system: OVCAR-5 ovarian
[10] = test system: RXF 393 renal
[11] = test system: SF-539 CNS
[12] = test system: SK-OV-3 ovarian
[13] = test system: A549 NSCLC
[14] = test system: HCT-116 colon
[15] = test system: HOP-92 NSCLC
[16] = test system: UACC-257 melanoma
[17] = test system: NCI-H226 lung
[18] = test system: KM12 colon
[19] = test system: PC-3 prostate
[20] = test system: SF-268 CNS
[21] = test system: DU-145 prostate
[22] = test system: NCI-H322M lung
[23] = test system: SN12C renal
[24] = test system: SR leukemia
[25] = test system: UACC-62 melanoma
[26] = test system: M14 melanoma
[27] = test system: NCI-H460 NSCLC
[28] = test system: UO-31 renal
[29] = test system: SW-620 colon
[30] = test system: MDA-MB-435 melanoma
[31] = test system: MDA-MB-231 breast
[32] = test system: IGROV1 ovarian
[33] = test system: OVCAR-4 ovarian
[34] = test system: U251 glioblastoma
[35] = test system: HCT-15 colon
[36] = test system: SNB-75 CNS
[37] = test system: SF-295 CNS
[38] = test system: T-47D breast
[39] = test system: MDA-MB-468 breast
[40] = test system: OVCAR-8 ovarian
[41] = test system: NCI-H522 lung
[42] = test system: HOP-62 NSCLC
[43] = test system: SK-MEL-28 melanoma
[44] = test system: SNB-19 CNS
[45] = test system: CAKI-1 renal
[46] = test system: TK-10 renal
[47] = test system: MCF7 breast
[48] = test system: ACHN renal
[49] = test system: K-562 leukemia
[50] = test system: 786-0 renal
[51] = test system: HT29 colon
[52] = test system: SK-MEL-5 melanoma
[53] = test system: BT-549 breast
[54] = test system: NCI-H23 lung
[55] = test system: MALME-3M melanoma

CC(C)[C@@H](CS(=O)(=O)C(C)C)N1C(=O)[C@@](C)(CC(=O)O)C[C@H](c2cccc(Cl)c2)[C@H]1c1ccc(Cl)cc1
GI50 [1]: 17.3 µM
TGI [1]: 31.2 µM
GI50 [2]: 0.117 µM
TGI [2]: 0.246 µM
GI50 [3]: 19.1 µM
TGI [3]: 34.6 µM
GI50 [4]: 15.5 µM
TGI [4]: 32.8 µM
GI50 [5]: 18.9 µM
TGI [5]: 51.5 µM
GI50 [6]: 14.5 µM
TGI [6]: 29.7 µM
GI50 [7]: 52.4 µM
TGI [7]: > 100 µM
GI50 [8]: 0.295 µM
TGI [8]: 11.3 µM
GI50 [9]: 38 µM
TGI [9]: > 100 µM
GI50 [10]: 13.1 µM
TGI [10]: 36 µM
GI50 [11]: 16.5 µM
TGI [11]: 35.2 µM
GI50 [12]: 24 µM
TGI [12]: 80.2 µM
GI50 [13]: 0.433 µM
TGI [13]: 13 µM
GI50 [14]: 0.334 µM
TGI [14]: 15.1 µM
GI50 [15]: 17.7 µM
TGI [15]: 40.4 µM
GI50 [16]: 0.203 µM
TGI [16]: 0.671 µM
GI50 [17]: 0.148 µM
TGI [17]: 0.324 µM
GI50 [18]: 0.319 µM
TGI [18]: 10 µM
GI50 [19]: 14 µM
TGI [19]: 62.7 µM
GI50 [20]: 28.9 µM
TGI [20]: > 100 µM
GI50 [21]: 27.2 µM
TGI [21]: > 100 µM
GI50 [22]: 37.1 µM
TGI [22]: 94.1 µM
GI50 [23]: 32.1 µM
TGI [23]: > 100 µM
GI50 [24]: 0.053 µM
TGI [24]: 0.187 µM
GI50 [25]: 0.151 µM
TGI [25]: 12.8 µM
GI50 [26]: 13.5 µM
TGI [26]: 37.5 µM
GI50 [27]: 29.3 µM
TGI [27]: > 100 µM
GI50 [28]: 0.199 µM
TGI [28]: 0.445 µM
GI50 [29]: 37 µM
TGI [29]: > 100 µM
GI50 [30]: 20.7 µM
TGI [30]: 46 µM
GI50 [31]: 20.5 µM
TGI [31]: > 100 µM
GI50 [32]: 12.1 µM
TGI [32]: > 100 µM
GI50 [33]: 18.3 µM
TGI [33]: > 100 µM
GI50 [34]: 15.5 µM
TGI [34]: 37.8 µM
GI50 [35]: 26.4 µM
TGI [35]: 78.3 µM
GI50 [36]: 26.1 µM
TGI [36]: > 100 µM
GI50 [37]: 14.7 µM
TGI [37]: 38.7 µM
GI50 [38]: 23.3 µM
TGI [38]: 73.2 µM
GI50 [39]: 6.07 µM
TGI [39]: 22.2 µM
GI50 [40]: 21.1 µM
TGI [40]: 92.3 µM
GI50 [41]: 20.1 µM
TGI [41]: 49.3 µM
GI50 [42]: 21.5 µM
TGI [42]: 51.1 µM
GI50 [43]: 42.5 µM
TGI [43]: > 100 µM
GI50 [44]: 41.7 µM
TGI [44]: > 100 µM
GI50 [45]: 0.204 µM
TGI [45]: 13.1 µM
GI50 [46]: 35.2 µM
TGI [46]: > 100 µM
GI50 [47]: 0.157 µM
TGI [47]: 0.573 µM
GI50 [48]: 0.228 µM
TGI [48]: 0.949 µM
GI50 [49]: 20.6 µM
TGI [49]: > 100 µM
GI50 [50]: 36.5 µM
TGI [50]: > 100 µM
GI50 [51]: 37 µM
TGI [51]: > 100 µM
GI50 [52]: 0.994 µM
TGI [52]: 15 µM
GI50 [53]: 17.5 µM
TGI [53]: 34.4 µM
GI50 [54]: 14.6 µM
TGI [54]: 36.9 µM
GI50 [55]: 0.45 µM
TGI [55]: 19.8 µM
